30 compounds from ChEMBL document CHEMBL1153932, “Hybrid alpha-bromoacryloylamido chalcones. Design, synthesis and biological evaluation” (Bioorg Med Chem Lett, 2009) can be followed below.

Molecules are shown by their SMILES.

Assay [1] concerns L1210. Put plainly: Antiproliferative activity against mouse L1210 cells after 48 hrs by Coulter counting analysis. Particulars: L1210, 48 h. Format: functional, cell-based.
Assay [2] deals with MOLT-4. Put plainly: Antiproliferative activity against human MOLT4 cells after 48 hrs by Coulter counting analysis. Format: functional, cell-based. As to conditions: MOLT-4, 48 h.
In assay [3] the test system is FM3A. Description: Antiproliferative activity against mouse FM3A cells after 48 hrs by Coulter counting analysis. Format: functional, cell-based.
Assay [4] has as its system CCRF-CEM. Put plainly: Antiproliferative activity against human CEM cells after 48 hrs by Coulter counting analysis. Format: cell-based.
Assay [5] concerns HeLa. Put plainly: Antiproliferative activity against human HeLa cells after 48 hrs by Coulter counting analysis. Format: functional, cell-based.

For orientation: IC50 means the concentration at which inhibition is half-maximal. High values mean weaker potency, low ones greater potency. As to `COc1ccc(/C=C/C(=O)c2ccc(N)cc2)cc1OC`, the 50% inhibitory concentration (IC50) in assay [1] turned out to be 25 µM; in assay [2] it was 8.6 µM; in assay [3], 35 µM; in assay [4] it was 9.3 µM; in assay [5], 7.8 µM.
In turn, `C=C(Br)C(=O)O` came in with an IC50 in assay [1] of more than 120 µM.
On to `C=C(Br)C(=O)Nc1ccc(C(=O)/C=C/c2cc(OC)cc(OC)c2)cc1`, for which the IC50 in assay [1] came out at 2.7 µM; in assay [2] it was 1.5 µM; in assay [3], 2 µM; in assay [4], 2.2 µM; in assay [5] it was 1.7 µM.
In the case of `C=C(Br)C(=O)Nc1ccc(/C=C/C(=O)c2ccc(OC)cc2)cc1`, the 50% inhibitory concentration (IC50) in assay [1] came out at 0.98 µM; in assay [2], 1.3 µM; in assay [3], 1.2 µM; in assay [4], 1.4 µM; in assay [5], 1.4 µM.
For the compound `C=C(Br)C(=O)Nc1ccc(/C=C/C(=O)c2ccc(Cl)cc2)cc1`, the IC50 in assay [1] was 1.1 µM; in assay [2], 0.81 µM; in assay [3] it was 1.3 µM; in assay [4], 0.95 µM; in assay [5] it was 1.6 µM.
In the same order, the values of `C=C(Br)C(=O)Nc1ccc(/C=C/C(=O)c2cccc(OC)c2)cc1` are 2.1 µM, 0.85 µM, 2.7 µM, 2.3 µM and 0.7 µM.
Take `CN(C)c1ccc(/C=C/C(=O)c2ccc(N)cc2)cc1`: the IC50 in assay [1] is 67 µM; in assay [2], 9.9 µM; in assay [3], 96 µM; in assay [4] it was 20 µM; in assay [5], 28 µM.
In the same order, the values of `C=C(Br)C(=O)Nc1ccc(/C=C/C(=O)c2ccc(Cl)c(Cl)c2)cc1` are 2.1 µM, 1.8 µM, 3.2 µM, 1.7 µM and 3.2 µM.
The like results for `Nc1ccc(C(=O)/C=C/c2ccccc2)cc1` were, in that order, 14 µM, 7.9 µM, 34 µM, 8.5 µM and 7.7 µM.
As for `Nc1ccc(/C=C/C(=O)c2ccc(Cl)cc2)cc1`, the IC50 turned out to be 111 µM in assay [1]; 7.8 µM in assay [2]; 178 µM in assay [3]; 21 µM in assay [4]; 43 µM in assay [5].
For the compound `Nc1ccc(/C=C/C(=O)c2ccc(Cl)c(Cl)c2)cc1`, the IC50 is 26 µM in assay [1]; 13 µM in assay [2]; 33 µM in assay [3]; 15 µM in assay [4]; 31 µM in assay [5].
The like results for `CCOc1ccc(C(=O)/C=C/c2ccc(N)cc2)cc1` were, in that order, 21 µM, 11 µM, 55 µM, 15 µM and 41 µM.
The like results for `Nc1ccc(/C=C/C(=O)c2ccccc2)cc1` were, in that order, 88 µM, 10 µM, 146 µM, 34 µM and 36 µM.
For `COc1ccc(/C=C/C(=O)c2ccc(N)cc2)cc1`, the IC50 in assay [1] was 18 µM; in assay [2] it was 8.6 µM; in assay [3], 35 µM; in assay [4], 14 µM; in assay [5], 8.7 µM.
In the same order, the values of `COc1ccc(/C=C/C(=O)c2ccc(N)cc2)c(OC)c1` are 34 µM, 20 µM, 43 µM, 18 µM and 22 µM.
For the compound `C=C(Br)C(=O)Nc1ccc(/C=C/C(=O)c2cc(OC)c(OC)c(OC)c2)cc1`, the IC50 in assay [1] came to 0.91 µM; in assay [2], 0.85 µM; in assay [3], 0.95 µM; in assay [4], 1.1 µM; in assay [5], 1.1 µM.
In the case of `C=C(Br)C(=O)Nc1ccc(C(=O)/C=C/c2ccc(OC)cc2OC)cc1`, the IC50 in assay [1] is 0.52 µM; in assay [2], 1.5 µM; in assay [3] it was 1.2 µM; in assay [4], 1.1 µM; in assay [5], 1.1 µM.
With `COc1cccc(C(=O)/C=C/c2ccc(N)cc2)c1`, the IC50 stood at 38 µM in assay [1]; 20 µM in assay [2]; 43 µM in assay [3]; 26 µM in assay [4]; 33 µM in assay [5].
The like results for `COc1ccc(/C=C/C(=O)c2ccc(N)cc2)c(OC)c1OC` were, in that order, 25 µM, 10 µM, 29 µM, 9.7 µM and 8.2 µM.
The like results for `COc1cc(/C=C/C(=O)c2ccc(N)cc2)cc(OC)c1` were, in that order, 6 µM, 7.5 µM, 12 µM, 5.7 µM and 7.9 µM.
The like results for `C=C(Br)C(=O)Nc1ccc(/C=C/C(=O)c2ccccc2)cc1` were, in that order, 5 µM, 3.1 µM, 3.9 µM, 4 µM and 3.9 µM.
Take `C=C(Br)C(=O)Nc1ccc(C(=O)/C=C/c2ccc(OC)c(OC)c2)cc1`: the IC50 worked out at 1.3 µM in assay [1]; 1.8 µM in assay [2]; 1.2 µM in assay [3]; 1.6 µM in assay [4]; 0.77 µM in assay [5].
`Nc1ccc(/C=C/C(=O)c2cccc3ccccc23)cc1`: the IC50 in assay [1] is 32 µM; in assay [2], 12 µM; in assay [3] it was 41 µM; in assay [4], 22 µM; in assay [5], 18 µM.
The like results for `COc1cc(/C=C/C(=O)c2ccc(N)cc2)cc(OC)c1OC` were, in that order, 7.8 µM, 5.6 µM, 8.8 µM, 2.3 µM and 6.9 µM.
The like results for `Nc1ccc(/C=C/C(=O)c2ccc(I)cc2)cc1` were, in that order, 50 µM, 7.5 µM, 110 µM, 16 µM and 58 µM.
Consider `C=C(Br)C(=O)Nc1ccc(C(=O)/C=C/c2cc(OC)c(OC)c(OC)c2)cc1`, for which the IC50 in assay [1] was found to be 1.5 µM; in assay [2], 0.28 µM; in assay [3], 1.8 µM; in assay [4], 0.33 µM; in assay [5], 0.42 µM.
Take `Cc1ccc(C(=O)/C=C/c2ccc(N)cc2)cc1`: the IC50 in assay [1] is 49 µM; in assay [2], 12 µM; in assay [3], 107 µM; in assay [4], 31 µM; in assay [5], 40 µM.
In the same order, the values of `COc1cccc(/C=C/C(=O)c2ccc(N)cc2)c1` are 22 µM, 21 µM, 45 µM, 23 µM and 19 µM.
`Nc1ccc(/C=C/C(=O)c2ccc(Br)cc2)cc1`: the half-inhibitory concentration (IC50) stood at 90 µM in assay [1]; 10 µM in assay [2]; 120 µM in assay [3]; 14 µM in assay [4]; 49 µM in assay [5].
With `Nc1ccc(/C=C/C(=O)c2ccc(F)cc2)cc1`, the IC50 in assay [1] amounted to 123 µM; in assay [2], 12 µM; in assay [3], 185 µM; in assay [4], 39 µM; in assay [5], 40 µM.
